From paper PMC12027948, “Development of Peptidomimetic PROTACs as Potential Degraders of 3-Chymotrypsin-like Protease of SARS-CoV-2” (International Journal of Molecular Sciences, 2025)

Legend:
[1] = Cytotoxicity assay (Cell Counting Kit-8); conditions: human
[2] = target: SARS-CoV-2 3CL^pro (Severe acute respiratory syndrome coronavirus 2, UniProt P0DTD1); test: cell-based; conditions: HEK293 cells with stable 3CL^pro-flag expression, 72 h treatment, densitometry of Western blot; read-out: Dmax (maximum degradation in percentage)
[3] = test system: HEK293 cells; test: Cytotoxicity assay (Cell Counting Kit-8); conditions: read-out: CC50 (50% cytotoxicity concentration); HEK293, 72 h, CCK8
[4] = HEK293 cells, CC50 (50% cytotoxicity concentration), HEK293, 72 h, CCK8

For `CC(C)[C@H](NC(=O)[C@@H](NC(=O)OC(C)(C)C)C1CCCCC1)C(=O)OCCOCCNc1cccc2c1C(=O)N(C1CCC(=O)NC1=O)C2=O` (some centres unmarked) [Compound 15], the CC50 at 3 days [1, 4] was 145 µM and the Dmax [2] was 89.3%.

Compound `CC(C)C[C@H](NC(=O)OC(C)(C)C)C(=O)N[C@@H](Cc1ccccc1)C(=O)OCCOCCOCCNc1cccc2c1C(=O)N(C1CCC(=O)NC1=O)C2=O` (some centres unmarked) [Compound 16] has a CC50 [3] of 25.8 µM, a CC50 at 3 days [1, 4] of ~25 µM and a Dmax [2] of 75%.

Work on `CC(C)(C)OC(=O)N[C@H](C(=O)N[C@@H](Cc1ccccc1)C(=O)NCCCCNC(=O)CCC(=O)Nc1cccc2c1CN(C1CCC(=O)NC1=O)C2=O)C1CCCCC1` (some centres unmarked) [Compound 17] yielded a CC50 at 3 days [1] of 219 µM.

`CC(C)(C)OC(=O)N[C@H](C(=O)N[C@@H](Cc1ccccc1)C(=O)NCCCCCCNC(=O)CCC(=O)Nc1cccc2c1CN(C1CCC(=O)NC1=O)C2=O)C1CCCCC1` (some centres unmarked) [Compound 18] gave a CC50 at 3 days [1] of 92.2 µM.

`CC(C)C[C@H](NC(=O)[C@H](Cc1ccccc1)NC(=O)OC(C)(C)C)C(=O)NCCCCCCNC(=O)CCC(=O)Nc1cccc2c1CN(C1CCC(=O)NC1=O)C2=O` (some centres unmarked) [Compound 19] showed a CC50 at 3 days [1] of 241 µM.
